Experimental data: patent publication US7638516B2, “Agent for therapeutic treatment of optic nerve diseases and the like” (Mei Co., Ltd., priority 2000, dated 2009)

Test system: retinal degeneration induced by transient retinal ischemia
Assay: Suppressing effect on retinal degeneration in transient retinal ischemia
Format: in vivo, Wister male rats
Settings: rat, 3 mg/kg into the caudal vein immediately before and after ocular hypertension treatment (IOP 130 mmHg, 50 minutes); 7 days after treatment; p<0.01 relative to control
Description: Wister male rats (body weight of about 200 g) were used. Each animal was subjected to sufficient warming treatment by using a thermal plate under anesthesia, and the head was fixed by using a stereotaxic apparatus. In order to induce transient retinal ischemia, IOP was maintained at 130 mmHg for 50 minutes by injecting intraocular irrigating solution into the anterior chamber via the cornea using an infusion tube and 30 G injection needle which were connected to a bottle held at 174 cm above the eyes (ocular hypertension treatment) according to the method of Akaike (Folia Pharmacologica Japonica, 111, pp. 97-104 (1998)). The ocular hypertension treatment was performed only on the right eye, and the left eye was left untreated. Immediately before and after the ocular hypertension treatment, a physiological saline solution or a dose of 3 mg/kg of MCI-186 was injected to the caudal vein. […] That is, a light-microscopic section of the retina was prepared 7 days after the ocular hypertension treatment, and the thickness of the retina was measured under microscope by using a micrometer (thickness from inner plexiform layer to inner nuclear layer). […] 7 days after the ocular hypertension treatment. Data represent means±SEM. As for the number of animals, the control group consisted of 10 rats, and the MCI-186 group consisted of 11 rats. […]

Which “retinal degeneration induced by transient retinal ischemia (retinal thickness ratio, ocular hypertension treated eye/normal eye)” value does the source give for CC1=NN(c2ccccc2)C(=O)C1 [MCI-186, 3-methyl-1-phenyl-2-pyrazolin-5-one] here?
Its value is “significantly suppressed”.
